This is an account of results in PMC8184751, “Proline/arginine dipeptide repeat polymers derail protein folding in amyotrophic lateral sclerosis” (Nature Communications, 2021).

“Also recorded” adds a separate entry of the source.

The target of test [1] is T1, PPIA (Homo sapiens, UniProt P62937).
T1 construct: His-tag (cleaved yes); made in house; host or cells: Escherichia coli BL21(DE3)
The test is described as follows: NMR titration of 15N-labeled PPIA with dipeptide repeat polymers (1H-15N HSQC). Conditions: for Arg55 csp / Arg55 I/I0 (titration, SI Fig 2b): 40 µM 15N-PPIA; for Arg55 csp / I/I0 of the HSQC cross-peak of PPIA residue 55 (SI Fig 2a) / Arg55 I/I0 (titration, SI Fig 2b): pH 7.4, 298 K; for I/I0 of the HSQC cross-peak of PPIA residue 55 (SI Fig 2a): eightfold excess of peptide (320 µM) over 40 µM 15N-PPIA; for binding to PPIA judged from NMR signals: eightfold excess of peptide over PPIA, 1H-15N HSQC. Format: binding.
Description: Titration of ^15N-labeled PPIA with dipeptide repeat polymers (PR20, GR20, GP20, AP20, PR10, PR5, and PR2) were carried out in 25 mM HEPES buffer with 100 mM NaCl, 2 mM DTT, 0.01% NaN3, and 10% D20 at pH 7.4. For 40 µM protein, the ligand concentrations were increased from 0 to 320 µM in five steps. For the PPIA/GP20 and PPIA/AP20 titrations, the concentration of the repeat polymer was further increased up to 3200 µM. Two-dimensional ^15N-^1H HSQC spectra[41] were acquired at 298 K for each PPIA/repeat polymer ratio.
Kd calculations for the interactions of PPIA with PR repeats (PR5, PR10, and PR20) were made from the dipeptide repeat polymer-induced variations in PPIA cross-peak intensities, using the equation for slow exchange regime interactions:1 1−I/I0=Imax(Kd+P+x)−Kd+P+x^2−4×P×x/2P where I is the intensity of PPIA peaks in the presence of increasing ligand concentrations, I0 is the intensity of free protein, P is the total concentration of protein, x is the concentration of ligand, and Kd is the dissociation constant.
The error in 1−(I/I0) is taken to be the error in the experimental quantity of I/I0 and has been calculated from the noise in HSQC spectra according to2 σI/I0=I/I0σI0/I0^2+σ(I)/I^2 where σ(I/Io) is the error in I/I0, σ(Io) and σ(I) are the noise (RMS value of background noise from various regions) in the HSQC spectrum of PPIA alone and that of PPIA in the presence of ligand, respectively.
In case of the PPIA/GP20- and PPIA/AP20 interactions, the Kd value was calculated from the equation for fast exchange interactions using chemical shift perturbations (CSP) according to3 CSP=CSPmax(Kd+P+x)−(Kd+P+x)^2−4×P×x/2P where4 CSP=(δH)^2+δN/6.5^2
Imax and CSPmax were treated as independent free fit parameters for the residues. The error value in the Kd is the standard error of fitting.

The target in the next test is T2, RNaseT1 (Aspergillus oryzae, UniProt P00651).
T2 construct: purchased Thermo Fischer
T2 sequence (P00651 27-130): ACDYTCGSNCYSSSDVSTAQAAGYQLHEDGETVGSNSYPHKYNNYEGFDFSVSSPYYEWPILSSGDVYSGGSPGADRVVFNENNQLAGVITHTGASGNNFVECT
In words: Refolding of RNaseT1 without PPIA (self-folding control with PR20). Format: biochemical. Particulars: for exponential folding rate constant k of RNaseT1, no PPIA: Rnase T1:PR20=1:175, no CypA, same conditions. Here is the method:
(§1) RNaseT1 (purchased from Thermo Fischer) was unfolded by incubating in 6.9 M urea at 10 °C for 2 h in 100 mM Tris-HCl buffer at pH 8. Refolding of RNaseT1 was initiated by diluting it 35 times with same buffer such that the final concentration of RNaseT1 was 2.27 µM and urea 0.197 M. Tryptophan fluorescence emission was measured at 320 nm (excitation wavelength = 280 nm) during refolding for 1 h on a Cary Eclipse Fluorescence Spectrophotometer at 10 °C. In experiments with PR20, PPIA, or both, they were added to the dilution buffer and incubated at 10 °C for 2 h prior to mixing. Data were normalized and averaged for graphical representation. The exponential constants, k, for the increasing fluorescence intensities were obtained from fitting a mono-exponential function to the experimental data in Graph Pad Prism.

Test [2] has as its target T1, PPIA. The test is described as follows: PPIA-catalysed refolding of urea-unfolded RNaseT1 (tryptophan fluorescence). Format: biochemical. Here is the method:
as §1

The target in test [3] is PPIA. Conditions: read-out: binding affinity to the enzyme; cited from earlier work.
Test [4] has as its target T3, prolyl isomerase PPIA (human, UniProt P62937 2-164).
T3 construct: human PPIA (peptidyl-prolyl cis-trans isomerase A, cyclophilin A); gene cloned into a modified pET28a vector; 15N-labeled for the NMR titrations, unlabeled for ITC, crystallography and folding assays; source: E. coli BL21(DE3), purified (Ni-NTA, TEV cleavage, Superdex 75); 15N-labeled in M9 minimal media for NMR
The test is described as follows: ITC; 44 µM PPIA in the cell titrated with 650 µM PR20 in the syringe; 10 °C; 25 mM HEPES, 100 mM NaCl, 1 mM TCEP, pH 7.4; number of binding sites fixed to one. Conditions: both partners purified. A general note: ITC needs no label: the signal is the heat of the interaction.

In test [5] the target is T3, prolyl isomerase PPIA. In words: NMR titration; 40 µM 15N-labeled PPIA titrated with repeat polymer from 0 to 320 µM in five steps; 1H-15N HSQC at 298 K; 25 mM HEPES, 100 mM NaCl, 2 mM DTT, pH 7.4; Kd from the attenuation of the cross-peak of Arg55 (equation for slow exchange). Particulars: both partners purified.
Test [6] concerns the target T3, prolyl isomerase PPIA. The test is described as follows: NMR titration; 40 µM 15N-labeled PPIA titrated with GP20 or AP20 up to 3200 µM; 1H-15N HSQC at 298 K; 25 mM HEPES, 100 mM NaCl, 2 mM DTT, pH 7.4; Kd from chemical shift perturbations (equation for fast exchange). Particulars: both partners purified.

T3 sequence (P62937 2-164): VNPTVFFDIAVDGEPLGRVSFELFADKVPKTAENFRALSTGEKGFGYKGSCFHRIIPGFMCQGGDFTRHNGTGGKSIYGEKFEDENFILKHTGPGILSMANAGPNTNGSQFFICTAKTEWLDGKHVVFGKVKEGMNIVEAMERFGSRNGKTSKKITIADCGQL
T1 sequence (P62937 whole entry): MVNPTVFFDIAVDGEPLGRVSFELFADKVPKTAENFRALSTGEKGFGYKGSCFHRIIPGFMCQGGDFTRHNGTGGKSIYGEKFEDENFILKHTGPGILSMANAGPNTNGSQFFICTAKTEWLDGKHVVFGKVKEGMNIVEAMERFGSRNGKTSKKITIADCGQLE

In the case of “Ac-APAPAPAPAPAPAPAPAPAPAPAPAPAPAPAPAPAPAPAP-NH2 [AP20]”, the Arg55 csp on PPIA [1] (peptide conc. 32 uM) turned out to be 0.009725; at PPIA [1] (peptide conc. 160 uM) it was 0.03975; on PPIA [1] (peptide conc. 320 uM), 0.06372; at PPIA [1] (peptide conc. 640 uM), 0.09595; at PPIA [1] (peptide conc. 1280 uM) it was 0.1279; on PPIA [1] (peptide conc. 3200 uM), 0.1597.
Turning to “Ac-GPGPGPGPGPGPGPGPGPGPGPGPGPGPGPGPGPGPGPGP-NH2 [GP20]”, the Arg55 csp on PPIA [1] (peptide conc. 32 uM) worked out at 0.002383; at PPIA [1] (peptide conc. 96 uM), 0.006761; on PPIA [1] (peptide conc. 160 uM), 0.01147; at PPIA [1] (peptide conc. 320 uM), 0.01968; on PPIA [1] (peptide conc. 640 uM), 0.034; on PPIA [1] (peptide conc. 1280 uM), 0.04768. For the same molecule, the Arg55 csp on PPIA [1] (peptide conc. 2560 uM) is reported as 0.06404; on PPIA [1] (peptide conc. 3200 uM), 0.07024.
Regarding Ac-PRPRPRPRPR-NH2 [PR5], on PPIA [1], the Kd was determined as 48.5 µM and the “I/I0 of the HSQC cross-peak of PPIA residue 55 (SI Fig 2a)” value is 0.1037.
With Ac-PRPRPRPRPRPRPRPRPRPR-NH2 [PR10], on PPIA [1], the Kd stood at 27.1 µM and the “I/I0 of the HSQC cross-peak of PPIA residue 55 (SI Fig 2a)” value came out at 0.1506.
On to “Ac-PRPRPRPRPRPRPRPRPRPRPRPRPRPRPRPRPRPRPRPR-NH2 [PR20]”, for which the “exponential folding rate constant k of RNaseT1, no PPIA” value at RNaseT1 (independent experiment 2 of 3) and at RNaseT1 (independent experiment 3 of 3) was 0.1365 each time. Moreover, the “refolding kinetics of RNaseT1 in the presence of PR20, no PPIA” value at RNaseT1 (large excess of PR20, 10 °C, pH 8) is given as “unchanged”. Further, the “I/I0 of the HSQC cross-peak of PPIA residue 55 (SI Fig 2a)” value at PPIA [1] was -0.02438. In addition, the “Arg55 I/I0 (titration, SI Fig 2b)” value was 0.211 at PPIA [1] (ligand conc 9.6 uM); 0.472 on PPIA [1] (ligand conc 32 uM); 0.746 at PPIA [1] (ligand conc 96 uM); 0.931 on PPIA [1] (ligand conc 160 uM); 1.02 on PPIA [1] (ligand conc 320 uM). The “exponential folding rate constant k of RNaseT1” value amounted to 0.2834 on PPIA [2] (Rnase T1:CypA:PR20=1:0.033:7, 2.27 µM RNaseT1, 100 mM Tris-HCl pH 8, 10 °C, fluorescence 320 nm, mono-exponential fit, independent experiment 1 of 3); 0.2936 at PPIA [2] (Rnase T1:CypA:PR20=1:0.033:7, same conditions, independent experiment 2 of 3); 0.3078 on PPIA [2] (Rnase T1:CypA:PR20=1:0.033:7, same conditions, independent experiment 3 of 3); 0.2235 at PPIA [2] (Rnase T1:CypA:PR20=1:0.033:20, 2.27 µM RNaseT1, pH 8, 10 °C, mono-exponential fit, independent experiment 1 of 3); 0.3061 on PPIA [2] (Rnase T1:CypA:PR20=1:0.033:20, same conditions, independent experiment 2 of 3); 0.2847 on PPIA [2] (Rnase T1:CypA:PR20=1:0.033:20, same conditions, independent experiment 3 of 3). For the same molecule, the “exponential folding rate constant k of RNaseT1” value on PPIA [2] (Rnase T1:CypA:PR20=1:0.033:46, 2.27 µM RNaseT1, pH 8, 10 °C, mono-exponential fit, independent experiment 1 of 3) was found to be 0.2129; at PPIA [2] (Rnase T1:CypA:PR20=1:0.033:46, same conditions, independent experiment 2 of 3), 0.2303; at PPIA [2] (Rnase T1:CypA:PR20=1:0.033:46, same conditions, independent experiment 3 of 3), 0.2811; on PPIA [2] (Rnase T1:CypA:PR20=1:0.033:175, 2.27 µM RNaseT1, pH 8, 10 °C, mono-exponential fit, independent experiment 1 of 3) it was 0.1927; on PPIA [2] (Rnase T1:CypA:PR20=1:0.033:175, same conditions, independent experiment 2 of 3) it was 0.1913; at PPIA [2] (Rnase T1:CypA:PR20=1:0.033:175, same conditions, independent experiment 3 of 3), 0.202. Moreover, the “effect on the catalyzing effect of PPIA on RNaseT1 folding” value on PPIA [2] (increasing PR20: 7, 20, 46, 175 times excess over RNaseT1) is reported as “inhibited the catalyzing effect of PPIA in a dose-dependent manner”.
For the molecule “GR20: 20-dipeptide glycine/arginine repeat polymer, acetylated and amidated termini”, in the test with PPIA [1], the “binding to PPIA judged from NMR signals” value is “does not bind to PPIA”. For the same molecule, the “Arg55 I/I0 (titration, SI Fig 2b)” value is recorded as 0.0912 with PPIA [1] (ligand conc 9.6 uM); 0.0182 with PPIA [1] (ligand conc 32 uM); -0.00762 in the test with PPIA [1] (ligand conc 96 uM); 0.124 in the test with PPIA [1] (ligand conc 160 uM); -0.0665 with PPIA [1] (ligand conc 320 uM).
As for “PR2: two PR dipeptides, the four-residue peptide, acetylated and amidated termini (Ac-PRPR-NH2)”, in the test with PPIA [1], the “I/I0 of the HSQC cross-peak of PPIA residue 55 (SI Fig 2a)” value worked out at 0.9376 and the “binding to PPIA judged from NMR signals” value is recorded as “does not efficiently bind; also recorded: abrogated the binding to PPIA”.
Consider cyclosporin A, for which, at PPIA [3], the Kd was 0.013 ± 0.004 µM.

B1: PR repeat polymer with 20 repeats (PR20) (peptide)
peptide: Ac-PRPRPRPRPRPRPRPRPRPRPRPRPRPRPRPRPRPRPRPR-NH2
notes: dipeptide repeat polymer translated from the C9orf72 hexanucleotide repeat expansion; Only eight residues of the polymer could be built in the asymmetric unit of PDB 7ABT; also called 20-dipeptide polymer PR20; 20-repeat PR polymer; source: synthetic peptide (solid-phase peptide synthesis)
B1: the Kd with prolyl isomerase PPIA [4] is ~50 µM; with prolyl isomerase PPIA [5], 23 µM.

B2: dipeptide repeat polymer AP20 (peptide)
peptide: Ac-APAPAPAPAPAPAPAPAPAPAPAPAPAPAPAPAPAPAPAP-NH2
notes: also called alanine/proline repeat polymer; source: synthetic peptide (solid-phase peptide synthesis)
As for B2, the Kd in the test with prolyl isomerase PPIA [6] amounted to 597 µM.

B3: dipeptide repeat polymer GP20 (peptide)
peptide: Ac-GPGPGPGPGPGPGPGPGPGPGPGPGPGPGPGPGPGPGPGP-NH2
notes: also called glycine/proline repeat polymer; source: synthetic peptide (solid-phase peptide synthesis)
On to B3, for which the Kd in the test with prolyl isomerase PPIA [6] was 1190 µM.

B4: PR repeat polymer with ten PR dipeptides (PR10) (peptide)
peptide: Ac-PRPRPRPRPRPRPRPRPRPR-NH2
notes: source: synthetic peptide (solid-phase peptide synthesis)
Consider B4, for which the Kd with prolyl isomerase PPIA [5] worked out at 27 µM.

B5: PR repeat polymer with five PR dipeptides (PR5) (peptide)
peptide: Ac-PRPRPRPRPR-NH2
notes: as for B4
As to B5, the Kd in the test with prolyl isomerase PPIA [5] stood at 49 µM.
